What all share (type): cell-based
For one assay, the target named is T1, human TLR7 (Homo sapiens, UniProt Q9NYK1).
T1 construct: host or cells: HEK-Blue cells
T1 sequence (Q9NYK1 27-1049): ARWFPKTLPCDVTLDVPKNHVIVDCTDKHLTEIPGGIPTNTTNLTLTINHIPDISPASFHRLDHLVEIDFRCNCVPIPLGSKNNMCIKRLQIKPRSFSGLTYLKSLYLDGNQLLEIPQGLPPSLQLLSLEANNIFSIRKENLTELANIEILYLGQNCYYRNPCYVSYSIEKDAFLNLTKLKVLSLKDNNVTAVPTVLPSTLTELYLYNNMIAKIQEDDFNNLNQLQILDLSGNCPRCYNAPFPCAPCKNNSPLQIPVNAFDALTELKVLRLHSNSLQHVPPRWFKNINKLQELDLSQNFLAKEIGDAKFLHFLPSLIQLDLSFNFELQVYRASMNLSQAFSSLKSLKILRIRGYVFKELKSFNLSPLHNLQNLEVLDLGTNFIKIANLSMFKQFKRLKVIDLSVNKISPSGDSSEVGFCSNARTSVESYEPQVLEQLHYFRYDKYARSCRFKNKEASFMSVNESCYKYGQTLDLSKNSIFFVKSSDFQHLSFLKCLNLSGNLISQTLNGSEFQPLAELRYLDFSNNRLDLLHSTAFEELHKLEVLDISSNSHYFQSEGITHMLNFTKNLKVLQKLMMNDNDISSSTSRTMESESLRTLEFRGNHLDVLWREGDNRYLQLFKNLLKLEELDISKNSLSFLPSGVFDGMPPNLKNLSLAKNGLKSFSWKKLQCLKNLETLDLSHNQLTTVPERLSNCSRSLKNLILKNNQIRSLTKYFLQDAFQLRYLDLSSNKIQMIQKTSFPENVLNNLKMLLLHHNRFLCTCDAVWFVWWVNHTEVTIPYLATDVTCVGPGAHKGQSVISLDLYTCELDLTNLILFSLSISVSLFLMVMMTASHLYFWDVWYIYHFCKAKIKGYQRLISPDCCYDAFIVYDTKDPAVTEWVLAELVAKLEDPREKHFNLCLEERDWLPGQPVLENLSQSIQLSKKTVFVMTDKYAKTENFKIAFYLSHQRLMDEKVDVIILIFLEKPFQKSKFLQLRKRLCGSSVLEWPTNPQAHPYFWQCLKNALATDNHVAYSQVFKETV
Kind of assay: TLR7 inhibition reporter assay (HEK-Blue SEAP reporter, gardiquimod stimulation). To be noted: HEK-Blue cells overexpressing human TLR7, SEAP reporter, gardiquimod 7.5 μM, 22 hour incubation. On the procedure:
(§1) TLR7/8/9 Inhibition Reporter Assays
(§2) HEK-Blue™-cells (Invivogen) overexpressing human TLR7, TLR8 or TLR9 receptors were used for screening inhibitors of these receptors using an inducible SEAP (secreted embryonic alkaline phosphatase) reporter gene under the control of the IFN-β minimal promoter fused to five NF-κB and AP-1-binding sites. Briefly, cells are seeded into Greiner 384 well plates (15000 cells per well for TLR7, 20,000 for TLR8 and 25,000 for TLR9) and then treated with test compounds in DMSO to yield a final dose response concentration range of 0.05 nM-50 μM. After a 30 minute compound pre-treatment at room temperature, the cells are then stimulated with a TLR7 ligand (gardiquimod at a final concentration of 7.5 μM), TLR8 ligand (R848 at a final concentration of 15.9 μM) or TLR9 ligand (ODN2006 at a final concentration of 5 nM) to activate NF-κB and AP-1 which induce the production of SEAP. After a 22 hour incubation at 37° C., 5% CO2, SEAP levels are determined with the addition of HEK-Blue™ Detection reagent (Invivogen), a cell culture medium that allows for detection of SEAP, according to manufacturer's specifications. The percent inhibition is determined as the % reduction in the HEK-Blue signal present in wells treated with agonist plus DMSO alone compared to wells treated with a known inhibitor.
(In general: A reporter such as luciferase makes a cellular process visible.)

The target in a further assay is T2, human TLR8 (Homo sapiens, UniProt Q9NR97).
T2 construct: host or cells: HEK-Blue cells
T2 sequence (Q9NR97 27-1041): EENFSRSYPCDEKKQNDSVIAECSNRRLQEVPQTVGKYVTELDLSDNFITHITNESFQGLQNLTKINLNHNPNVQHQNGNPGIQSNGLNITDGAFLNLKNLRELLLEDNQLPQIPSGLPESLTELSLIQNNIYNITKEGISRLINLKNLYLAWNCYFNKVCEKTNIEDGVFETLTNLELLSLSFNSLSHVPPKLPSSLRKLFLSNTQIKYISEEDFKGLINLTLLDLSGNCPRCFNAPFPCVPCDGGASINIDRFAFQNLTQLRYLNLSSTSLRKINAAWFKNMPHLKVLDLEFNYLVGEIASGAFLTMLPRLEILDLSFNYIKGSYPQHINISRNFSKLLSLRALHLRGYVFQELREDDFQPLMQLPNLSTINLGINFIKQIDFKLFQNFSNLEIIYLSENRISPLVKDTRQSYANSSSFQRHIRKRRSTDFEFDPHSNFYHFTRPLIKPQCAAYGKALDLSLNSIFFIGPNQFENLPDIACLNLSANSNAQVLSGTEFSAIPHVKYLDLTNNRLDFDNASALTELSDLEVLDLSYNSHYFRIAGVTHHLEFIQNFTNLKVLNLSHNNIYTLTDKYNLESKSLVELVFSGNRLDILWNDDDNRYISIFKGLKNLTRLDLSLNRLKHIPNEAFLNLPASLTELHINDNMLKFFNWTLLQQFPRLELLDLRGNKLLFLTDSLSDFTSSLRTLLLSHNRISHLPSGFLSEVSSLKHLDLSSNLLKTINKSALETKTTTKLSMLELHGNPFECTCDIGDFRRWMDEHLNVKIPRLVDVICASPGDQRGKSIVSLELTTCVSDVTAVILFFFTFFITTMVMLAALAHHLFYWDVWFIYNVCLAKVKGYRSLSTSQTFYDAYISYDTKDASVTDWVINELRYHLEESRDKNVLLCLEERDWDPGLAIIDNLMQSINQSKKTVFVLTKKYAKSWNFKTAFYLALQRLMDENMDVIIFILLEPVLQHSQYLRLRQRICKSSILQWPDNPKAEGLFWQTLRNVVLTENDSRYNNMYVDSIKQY
As to the kind of experiment: TLR8 inhibition reporter assay (HEK-Blue SEAP reporter, R848 stimulation). To be noted: HEK-Blue cells overexpressing human TLR8, SEAP reporter, R848 15.9 μM, 22 hour incubation. On the procedure: as §1, §2

The next assay addresses T3, human TLR9 (Homo sapiens, UniProt Q9NR96).
T3 construct: host or cells: HEK-Blue cells
T3 sequence (Q9NR96 26-1032): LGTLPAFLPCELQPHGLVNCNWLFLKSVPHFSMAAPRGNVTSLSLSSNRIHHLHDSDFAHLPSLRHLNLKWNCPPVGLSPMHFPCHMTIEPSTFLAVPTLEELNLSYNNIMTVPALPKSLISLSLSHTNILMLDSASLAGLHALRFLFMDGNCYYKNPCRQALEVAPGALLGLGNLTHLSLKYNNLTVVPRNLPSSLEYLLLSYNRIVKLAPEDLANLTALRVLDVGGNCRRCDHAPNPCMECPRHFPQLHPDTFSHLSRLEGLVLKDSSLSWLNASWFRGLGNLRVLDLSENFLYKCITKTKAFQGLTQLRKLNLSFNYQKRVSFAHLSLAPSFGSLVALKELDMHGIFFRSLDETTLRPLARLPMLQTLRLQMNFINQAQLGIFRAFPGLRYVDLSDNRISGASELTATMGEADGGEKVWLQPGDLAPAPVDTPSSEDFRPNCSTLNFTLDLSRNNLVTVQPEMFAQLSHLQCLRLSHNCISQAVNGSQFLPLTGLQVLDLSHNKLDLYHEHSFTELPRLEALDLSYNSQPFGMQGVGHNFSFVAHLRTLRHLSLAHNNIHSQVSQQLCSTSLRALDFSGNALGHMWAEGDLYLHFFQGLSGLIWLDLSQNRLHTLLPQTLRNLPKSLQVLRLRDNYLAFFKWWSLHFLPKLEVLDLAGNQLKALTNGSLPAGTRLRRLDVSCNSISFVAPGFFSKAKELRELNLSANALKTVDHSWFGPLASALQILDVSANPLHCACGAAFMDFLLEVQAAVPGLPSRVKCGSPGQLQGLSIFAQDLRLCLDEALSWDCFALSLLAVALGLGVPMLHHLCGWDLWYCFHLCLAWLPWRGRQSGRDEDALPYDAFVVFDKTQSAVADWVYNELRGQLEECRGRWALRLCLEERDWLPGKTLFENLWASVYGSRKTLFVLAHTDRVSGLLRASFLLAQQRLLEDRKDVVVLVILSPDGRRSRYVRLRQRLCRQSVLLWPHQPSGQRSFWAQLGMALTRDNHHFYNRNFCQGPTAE
As to the kind of experiment: TLR9 inhibition reporter assay (HEK-Blue SEAP reporter, ODN2006 stimulation). To be noted: HEK-Blue cells overexpressing human TLR9, SEAP reporter, ODN2006 5 nM, 22 hour incubation. On the procedure:
as §1, §2

pIC50: −log10 of the molar value.

Usually pIC50 stands for the IC50 on a negative log10 scale, so that one unit is a factor of ten.

As to `Cc1c(-c2[nH]c3ccc(C4CCN(CC5CCCO5)CC4)cc3c2C(C)C)cn(C)c(=O)c1Cl` (stereo not drawn) [Example 250, 3-chloro-5-(3-isopropyl-5-(1-((tetrahydrofuran-2-yl)methyl)piperidin-4-yl)-1H-indol-2-yl)-1,4-dimethylpyridin-2(1H)-one], the figures for the pIC50 against human TLR7, against human TLR8 and against human TLR9 were 8.20, 8.32 and 5.52, respectively.

Take `CCn1cc(-c2[nH]c3ccc(C4CCN(C(C)C)CC4)cc3c2C(C)C)c(C)c(C)c1=O` [Example 213, 1-ethyl-5-(3-isopropyl-5-(1-isopropylpiperidin-4-yl)-1H-indol-2-yl)-3,4-dimethylpyridin-2(1H)-one]: the negative-log IC50 (pIC50) is 7.81 on human TLR7, 7.78 on human TLR8 and 5.54 against human TLR9.

On to `Cc1c(-c2[nH]c3ccc(C4CCN(CC(=O)N(C)C)CC4)c(F)c3c2C(C)C)cn(C)c(=O)c1Cl` [Example 158, 2-(4-(2-(5-chloro-1,4-dimethyl-6-oxo-1,6-dihydropyridin-3-yl)-4-fluoro-3-isopropyl-1H-indol-5-yl)piperidin-1-yl)-N,N-dimethylacetamide], for which the pIC50 at human TLR7 was 8.18; against human TLR8, 8.59; at human TLR9 it was 5.45.

With `Cc1c(-c2[nH]c3ccc(C4CCN(C5CCOCC5)CC4)cc3c2C(C)C)cn(C)c(=O)c1Cl` [Example 239, 3-chloro-5-(3-isopropyl-5-(1-(tetrahydro-2H-pyran-4-yl)piperidin-4-yl)-1H-indol-2-yl)-1,4-dimethylpyridin-2(1H)-one], the results for the pIC50 on human TLR7, against human TLR8 and on human TLR9 were 8.27, 8.28 and 5.24, respectively.

On to `CC(C)c1c(-c2ccc(=O)n(C)c2)[nH]c2ccc(C3CCN(CC(=O)N(C)C)CC3)cc12` [Example 114, 2-(4-(3-isopropyl-2-(1-methyl-6-oxo-1,6-dihydropyridin-3-yl)-1H-indol-5-yl)piperidin-1-yl)-N,N-dimethylacetamide], for which the pIC50 is 7.37 against human TLR7, 7.36 against human TLR8 and 4.98 against human TLR9.

`Cc1c(-c2[nH]c3ccc(C4CCN(CC5CCOCC5)CC4)cc3c2C(C)C)cn(C)c(=O)c1Cl` [Example 93, 3-chloro-5-(3-isopropyl-5-(1-((tetrahydro-2H-pyran-4-yl)methyl)piperidin-4-yl)-1H-indol-2-yl)-1,4-dimethylpyridin-2(1H)-one]: the negative logarithm of the IC50 (pIC50) is 8.30 on human TLR7, 8.31 at human TLR8 and 5.24 on human TLR9.

`Cc1c(-c2[nH]c3ccc(C4CCN(CC5CCOC5)CC4)cc3c2C(C)C)cn(C)c(=O)c1Cl` (stereo not drawn) [Example 254, 3-chloro-5-(3-isopropyl-5-(1-((tetrahydrofuran-3-yl)methyl)piperidin-4-yl)-1H-indol-2-yl)-1,4-dimethylpyridin-2(1H)-one]: the negative logarithm of the IC50 (pIC50) against human TLR7 is 8.26; against human TLR8 it was 8.68; at human TLR9, 5.57.

Take `COCCn1cc(-c2[nH]c3ccc(C4CCN(CC(=O)N(C)C)CC4)cc3c2C(C)C)cc(C)c1=O` [Example 159, 2-(4-(3-isopropyl-2-(1-(2-methoxyethyl)-5-methyl-6-oxo-1,6-dihydropyridin-3-yl)-1H-indol-5-yl)piperidin-1-yl)-N,N-dimethylacetamide]: the pIC50 is 7.99 against human TLR7, 7.71 at human TLR8 and 4.78 on human TLR9.

Regarding `CCCN1CCC(c2ccc3[nH]c(-c4cc(-c5cnn(C)c5)c(=O)n(C)c4)c(C(C)C)c3c2)CC1` [Example 334, 5-(3-isopropyl-5-(1-propylpiperidin-4-yl)-1H-indol-2-yl)-1-methyl-3-(1-methyl-1H-pyrazol-4-yl) pyridin-2(1H)-one], the negative-log IC50 (pIC50) against human TLR7 was 8.07; at human TLR8, 9.10; at human TLR9 it was 6.31.

As to `COc1ncccc1-c1cc(-c2[nH]c3ccc(C4CCNCC4)cc3c2C(C)C)cn(C)c1=O` [Example 57, 5-(3-isopropyl-5-(piperidin-4-yl)-1H-indol-2-yl)-2′-methoxy-1-methyl[3,3′-bipyridin]-2(1H)-one], the pIC50 on human TLR7 was 7.16; against human TLR8, 7.09; on human TLR9 it was 5.87.

The record behind these values is patent US11447466B2, “Substituted indole compounds useful as inhibitors of TLR7/8/9” (BRISTOL-MYERS SQUIBB COMPANY, priority 2017, dated 2022).
